Assay results as given in patent US20070048325A1, “Combination therapies for inhibiting integrin-extracellular matrix interactions” (priority 2005, published 2007).
Where no end group is shown, it is not given here.

Key:
[1] = tested on: denatured collagen type-IV; assay: Solid phase ELISA of HRP-labeled CLK-peptide binding; conditions: collagen coated at 10 μg/ml; ELISA 490 nm
Experimental: FIG. 27 Inhibition of Binding of Labeled CLK-Peptide to Denatured Collagen Type-IV by mAb HUI77. To examine the binding specificity of the synthetic CLK-peptide, the peptide was labeled and solid phase ELISAs were performed.
To examine the binding specificity of CLK-Peptide, the peptide was labeled and solid phase ELISAs were performed. Denatured collagen type-IV (10 μg/ml) was coated on microtiter wells and binding of either HRP-labeled CLK-Peptide or mAbs (mAbs HU177 or HUIV26) was measured by ELISA at a wavelength of 490 nm.

[2] = tested on: denatured collagen type-IV; assay: ^99Tc-labeled CLK-peptide binding, gamma counter; conditions: for inhibition of ^99Tc-CLK-peptide binding to denatured collagen type-IV: collagen coated at 10 μg/ml
Experimental: FIG. 28 Inhibition of Binding of ^99Tc-Labeled CLK-Peptide to Denatured Collagen Type-IV by mAb HUI77. Denatured collagen type-IV (10 μg/ml) was coated on microtiter wells and binding of ^99Tc-labeled CLK-peptide in the presence or absence of unlabeled CLK-peptide or mAb HUI77 was measured. […] These findings provide further evidence that the CLK-peptide binds to a similar, if not identical, epitope recognized by the mAb HUI77.
In addition, denatured collagen type-IV (10 μg/ml) was coated on microtiter wells and binding of ^99Tc-labeled CLK-Peptide in the presence or absence of unlabeled CLK-peptide or mAb HUI77 was measured using a gamma counter. […] These findings provide further evidence that the CLK-peptide binds to a similar if not identical epitope recognized by Mab HUI77.

denatured collagen = conditions: cited from earlier work
[3] = tested on: denatured collagen type-IV; conditions: substantially greater defined as at least 1.5-fold; cited from earlier work
[4] = tested on: denatured collagen type-IV; assay: Competition ELISA of CLK-peptide and mAb HUIV26; type: binding
Experimental: FIG. 26 Binding of CLK-Peptide and Mab HUIV26 to Denatured Collagen Type IV. To examine the epitope bound by CLK and HUIV26, competition ELISAs were carried out. Microtiter wells were coated with denatured collagen type-IV (10 μg/ml), and mAb HUIV26 was allowed to bind the denatured collagen in the presence or absence of CLK-peptide.
To characterize the epitope bound by CLK and HUIV26, competition ELISAs were carried out. Microtiter wells were coated with denatured collagen type-IV (1 μg/ml) overnight at 4° C., and the plates were blocked with 1% BSA for 1 hour at 37° C. Monoclonal Ab HUIV26 was added at 1 μg/ml and allowed to bind the denatured collagen in the presence or absence of 100 μg/ml of CLK-peptide for 2 hours at 37° C. Goat-anti-mouse antibody was added at 1:3000 and incubation was allowed for 1 hour at 37° C. A color solution, then a stopping solution of 4N sulfuric acid, were added and binding was quantified by measuring the O.D. 490 nm. […] Similar results were obtained over a wide range of peptide and antibody concentrations (1 to 100 μg/ml; data not shown).

M21 cells = assay: M21 cell adhesion to native collagen type-IV; type: cell-based, human; conditions: CLK-peptide 100 μg/ml; mAb HUIV26 100 μg/ml; data not shown
Experimental: FIG. 25 Effect of mAb HUIV26 in Combination with CLK-Peptide on Adhesion of M21 Cells to Denatured Collagen Type IV. Microtiter wells were coated with either native or denatured collagen type-IV. M21 cells were allowed to bind to the coated substrates in the presence of CLK-peptide, mAb HUIV26, or both.
The effects of CLK-peptide, mAb HUIV26, and the combination of both on tumor cell adhesion were examined in vitro. Non-tissue culture treated 48-well microtiter plates were coated overnight at 4° C. with either native or denatured collagen type-IV (5 μg/ml). The plates were then blocked with 1% BSA in PBS for 1 hour at 37° C. Human melanoma (M21) cells at 10^5 cells/well in adhesion buffer were allowed to attach to the coated wells in the presence of either CLK-peptide (100 μg/ml), or mAb HUIV26 (100 μg/ml, […]), or both together (CLK-peptide 25 μg/ml, mAb HUIV26 100 μg/ml). The cells were washed 2× with PBS, stained with crystal violet and destained with 10% acetic acid. Cell adhesion was quantified by measuring the O.D. of eluted dye at 600 nm. Data bars represent the mean O.D.±standard deviation from triplicate wells.

[5] = target: integrin αvβ3 on M21 human melanoma cells (human (on human melanoma M21 cells)) (UniProt P06756); assay: cell-based or functional assay
Chain of UniProt P06756 (P06756 31-1048, chain 1 of 2): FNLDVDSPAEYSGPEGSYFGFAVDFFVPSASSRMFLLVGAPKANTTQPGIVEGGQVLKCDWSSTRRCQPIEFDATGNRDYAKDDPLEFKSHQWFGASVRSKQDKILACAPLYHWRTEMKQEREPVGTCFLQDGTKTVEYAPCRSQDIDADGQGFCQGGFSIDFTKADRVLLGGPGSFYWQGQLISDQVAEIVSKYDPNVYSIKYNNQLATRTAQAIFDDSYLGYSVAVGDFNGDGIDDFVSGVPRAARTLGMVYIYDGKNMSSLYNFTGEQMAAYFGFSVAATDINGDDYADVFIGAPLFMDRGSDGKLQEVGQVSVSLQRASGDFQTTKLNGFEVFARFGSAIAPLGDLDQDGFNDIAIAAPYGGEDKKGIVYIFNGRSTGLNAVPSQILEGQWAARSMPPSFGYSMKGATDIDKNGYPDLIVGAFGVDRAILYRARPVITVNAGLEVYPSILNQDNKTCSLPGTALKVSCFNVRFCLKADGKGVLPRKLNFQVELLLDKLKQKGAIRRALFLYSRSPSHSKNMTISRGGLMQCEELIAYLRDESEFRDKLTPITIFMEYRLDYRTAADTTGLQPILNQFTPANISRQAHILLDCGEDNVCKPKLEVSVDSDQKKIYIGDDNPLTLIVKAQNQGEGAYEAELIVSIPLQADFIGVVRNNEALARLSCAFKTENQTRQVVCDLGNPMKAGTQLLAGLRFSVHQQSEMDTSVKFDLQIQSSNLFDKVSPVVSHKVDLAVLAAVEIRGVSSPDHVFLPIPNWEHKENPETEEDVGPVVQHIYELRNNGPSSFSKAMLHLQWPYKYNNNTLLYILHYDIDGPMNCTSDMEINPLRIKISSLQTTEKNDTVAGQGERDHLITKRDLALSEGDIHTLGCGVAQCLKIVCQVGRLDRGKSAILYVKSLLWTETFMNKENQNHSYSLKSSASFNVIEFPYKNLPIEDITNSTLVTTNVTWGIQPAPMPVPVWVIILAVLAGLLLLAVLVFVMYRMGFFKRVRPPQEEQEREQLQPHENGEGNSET
Chain of UniProt P06756 (P05106 27-788, chain 2 of 2, further chain): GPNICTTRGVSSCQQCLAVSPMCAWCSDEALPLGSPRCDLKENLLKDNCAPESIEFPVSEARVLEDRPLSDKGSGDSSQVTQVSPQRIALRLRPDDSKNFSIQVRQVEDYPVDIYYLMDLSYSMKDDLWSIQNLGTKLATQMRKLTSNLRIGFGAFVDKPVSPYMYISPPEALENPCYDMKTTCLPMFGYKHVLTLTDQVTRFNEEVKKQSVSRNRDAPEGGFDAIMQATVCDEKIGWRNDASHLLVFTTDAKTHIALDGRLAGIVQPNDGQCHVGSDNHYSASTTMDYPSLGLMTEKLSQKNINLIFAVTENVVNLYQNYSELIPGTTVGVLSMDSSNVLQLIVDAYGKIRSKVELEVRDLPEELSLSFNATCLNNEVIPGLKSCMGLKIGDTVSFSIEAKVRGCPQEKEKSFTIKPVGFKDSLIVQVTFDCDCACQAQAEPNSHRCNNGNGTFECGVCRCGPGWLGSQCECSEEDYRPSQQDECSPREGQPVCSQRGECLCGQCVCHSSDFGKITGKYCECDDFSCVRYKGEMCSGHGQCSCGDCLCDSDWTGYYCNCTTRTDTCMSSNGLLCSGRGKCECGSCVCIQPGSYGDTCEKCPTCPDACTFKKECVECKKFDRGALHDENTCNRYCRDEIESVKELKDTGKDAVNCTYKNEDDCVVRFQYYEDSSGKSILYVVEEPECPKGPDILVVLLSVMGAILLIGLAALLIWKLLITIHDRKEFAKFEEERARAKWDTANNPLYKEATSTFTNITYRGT

inhibition of HRP-labeled CLK-peptide binding to denatured collagen type-IV [1] | inhibition of ^99Tc-CLK-peptide binding to denatured collagen type-IV [2] | Molecule | affinity to the native form of the collagen compared to denatured collagen (denatured collagen) | binding affinity to denatured collagen type-IV compared to native collagen type-IV [3] | effect on M21 cell adhesion to native collagen type-IV (M21 cells) | also measured
specifically inhibited | inhibited | mAb HUI77: mouse monoclonal antibody to denatured collagen; hybridoma PTA-6551; SEQ ID NO: 1 and 8 | substantially reduced affinity |  |  | 
 |  | NH2-S-L-K-Q-N-G-G-N—F—S-L-C—COOH (H-SLKQNGGNFSLC-OH) [SLK-peptide] |  | substantially greater |  | 
 |  | ^99Tc-CLK-peptide: CLK-peptide labeled with 99Tc (CLKQNGGNFSLG; also: labeled with 99Tc) |  |  |  | binding of ^99Tc-CLK-peptide to denatured collagen type-IV ([2]; 10 μg/ml, 50 μl/well): specifically binds
 | dose dependent inhibition | NH2-C-L-K-Q-N-G-G-N—F—S-L-G-COOH (H-CLKQNGGNFSLG-OH) [CLK-peptide] |  | substantially greater | neither had any effect | blocking of mAb HUIV26 binding to denatured collagen type-IV ([4]; HUIV26 1 μg/ml, CLK-peptide 100 μg/ml): did not block
 |  | Mab LM609 (antibody) |  |  |  | relative level of IGFBP-4 RNA (real time PCR) in M21 cells on denatured collagen type-IV [5]: 8 fold; relative level of TSP-1 (real time PCR) in M21 cells on plates coated with anti-integrin Mabs [5]: > 50%; relative level of TSP-1 RNA (real time PCR) in M21 cells on denatured collagen type-IV [5]: 8 fold
not |  | mAb HUIV26: monoclonal antibody to denatured collagen; Hybridoma HUIV26 (PTA-6563); SEQ ID NO: 15 and 22 (antibody, listed as Mus musculus, V domains shown) VH: EVKLLESGGGLVQPGGSLKLSCAASGFDFSRYWMSWVRQAPGKGLEWIGEINPDSSTINYTPSLKDKFIISRDNAKNTLYLQMSKVRSEDTALYYCARPVDGYYDAMDYWGQGTSVTVSS VL: DIVMTQSPSLLSVSAGEKVTMSCKSSQSLLNSGNQKNYLAWYQQKPGQPPKLLIYGASTRESGVPDRFTGSGSGTDFTLIISSVQAEDLAVYYCQNDHSVPYTFGGGTKLEI | substantially reduced affinity |  | neither had any effect | binding to denatured collagen type-IV ([4]; ELISA, HUIV26 1 μg/ml): readily bound; blocking of CLK-peptide binding to denatured collagen type-IV ([4]; FIG. 26B): did not block
